From patent US20070197590A1, “SUBSTITUTED DIPIPERIDINE CCR2 ANTAGONISTS” (priority 2006, published 2007)
pIC50: −log10 of the molar value. Where two headings read alike, the source gives them in different places.

Legend:
CCR2 = target: T1, CCR2 (Homo sapiens, UniProt P41597); assay: MCP-1 Receptor Binding Assay in THP-1 Cells; conditions: THP-1 cells, 0.5 nM 125I labeled MCP-1, 2 hours at 30° C.; read-out: Inhibition of MCP-1 Binding IC50
T1 construct: host or cells: THP-1 cells
T1 sequence (P41597 1-360 isoform P41597-2): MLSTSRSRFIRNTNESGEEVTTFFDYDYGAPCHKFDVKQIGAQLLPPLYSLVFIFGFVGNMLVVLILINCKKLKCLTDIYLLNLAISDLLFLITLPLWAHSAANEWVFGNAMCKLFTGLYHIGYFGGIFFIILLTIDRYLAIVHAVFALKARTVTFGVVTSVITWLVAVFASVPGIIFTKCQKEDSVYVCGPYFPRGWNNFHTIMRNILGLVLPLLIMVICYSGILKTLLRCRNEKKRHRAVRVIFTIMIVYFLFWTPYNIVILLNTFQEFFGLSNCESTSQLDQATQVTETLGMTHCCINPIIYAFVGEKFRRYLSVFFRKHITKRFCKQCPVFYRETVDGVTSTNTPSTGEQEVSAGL
How it was run: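 Whole THP-1 cells incubated 2 h at 30° C with 0.5 nM 125I-MCP-1 and varying compound concentrations; bound radioactivity harvested on filters and counted by scintillation. Nonspecific binding with 1 μM cold MCP-1; IC50 for inhibition of binding versus vehicle.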

[1] = system: MCP-1 induced calcium ion influx in THP-1 cells; assay: MCP-1 Induced Calcium Mobilization in THP-1 Cells; assay type: cell-based; conditions: for pIC50: 0.2 μM MCP-1, FLIPR, read-out: Inhibition of MCP-1 Induced Calcium Ion Influx IC50
How it was run: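 Fluo-3-loaded (5 μM, 45 min) THP-1 cells preincubated 15 min with compound. Calcium change after 0.2 μM MCP-1 addition read by FLIPR relative to vehicle; IC50 values derived.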

[2] = system: MCP-1 induced chemotaxis of THP-1 cells; assay: MCP-1 Induced Chemotaxis in THP-1 Cells; assay type: cell-based; conditions: Homo sapiens, MCP-1 0.01 μg/mL, 3 hours at 37° C., read-out: Inhibition of MCP-1 Induced Chemotaxis IC50
Experimental: MCP-1 induced chemotaxis was run in a 24-well chemotaxis chamber. MCP-1 (0.01 μg/mL) was added to the lower chamber and 100 μL of THP-1 cells (1×10^7 cell/mL) was added to the top chamber. Varying concentrations of test compound were added to the top and bottom chambers. Cells were allowed to chemotax for 3 hours at 37° C. and 5% CO2. An aliquot of the cells that had migrated to the bottom chamber was taken and counted then compared to vehicle.
Table 3 lists IC50 values for inhibition of MCP-1 induced chemotaxis.

[3] = Homo sapiens, THP-1, THP-1 cells

With `CS(=O)(=O)Nc1ccc2[nH]cc(C3CCN(CC(N)C4CCN(C(=O)C=Cc5cc(F)c(F)c(F)c5)CC4)CC3)c2c1` (stereo not drawn) [Compound 28, N-{3-[1-(2-amino-2-{1-[3-(3,4,5-trifluoro-phenyl)-acryloyl]-piperidin-4-yl}-ethyl)-piperidin-4-yl]-1H-indol-5-yl}-methanesulfonamide] the pIC50 (CCR2) was 6.60, the pIC50 [1, 3] was 6.51 and the pIC50 [2] was 6.43.
`COc1ccc(C2CCN(CC(O)C3CCN(C(=O)/C=C/c4cccc(C)c4)CC3)CC2)cc1` (stereo not drawn) [Compound 29] gave a pIC50 (CCR2) of 7.15, a pIC50 [1, 3] of 7.05 and a pIC50 [2] of 7.15.
Compound `COc1ccc(C2CCN(CC(O)C3CCN(C(=O)/C=C/c4cccc(C(F)(F)F)c4)CC3)CC2)cc1` (stereo not drawn) [Compound 30] has a pIC50 (CCR2) of 7.30, a pIC50 [1, 3] of 6.66 and a pIC50 [2] of 7.22.
For `COc1ccc(C2CCN(CC(O)C3CCN(C(=O)/C=C/c4ccc(F)c(F)c4)CC3)CC2)cc1` (stereo not drawn) [Compound 32], the pIC50 (CCR2) was 7.15, the pIC50 [1, 3] was 7.10 and the pIC50 [2] was 7.00.
`O=C(/C=C/c1cc(F)cc(F)c1)N1CCC(C(O)CN2CCC(c3cc[nH]n3)CC2)CC1` (stereo not drawn) [Compound 34] was tested, and the pIC50 (CCR2) was 6.24, the pIC50 [1, 3] was 4.96 and the pIC50 [2] was 6.08.
For `Cc1cccc(C=CC(=O)N2CCC(C(O)CN3CCC(c4c[nH]c5ccc(NS(C)(=O)=O)cc45)CC3)CC2)c1` (stereo not drawn) [Compound 40, N-[3-(1-{2-hydroxy-2-[1-(3-m-tolyl-acryloyl)-piperidin-4-yl]-ethyl}-piperidin-4-yl)-1H-indol-5-yl]-methanesulfonamide], the pIC50 (CCR2) was 7.10, the pIC50 [1, 3] was 6.77 and the pIC50 [2] was 7.52.
`CS(=O)(=O)Nc1ccc2[nH]cc(C3CCN(CC(O)C4CCN(C(=O)C=Cc5cc(F)cc(F)c5)CC4)CC3)c2c1` (stereo not drawn) [Compound 41, N-{3-[1-(2-{1-[3-(3,5-difluoro-phenyl)-acryloyl]-piperidin-4-yl}-2-hydroxy-ethyl)-piperidin-4-yl]-1H-indol-5-yl}-methanesulfonamide] showed a pIC50 (CCR2) of 7.40, a pIC50 [1, 3] of 7.05 and a pIC50 [2] of 7.70.
With `COc1ccc(C2CCN(CC(CO)C3CCN(C(=O)/C=C/c4ccc(Cl)c(Cl)c4)CC3)CC2)cc1` (stereo not drawn) [Compound 43] the pIC50 (CCR2) was 6.23, the pIC50 [1, 3] was 6.74 and the pIC50 [2] was 7.05.
For `COc1ccc(C2CCN(CC(CO)C3CCN(C(=O)/C=C/c4cc(F)cc(F)c4)CC3)CC2)cc1` (stereo not drawn) [Compound 45], the pIC50 (CCR2) was 6.92, the pIC50 [1, 3] was 6.82 and the pIC50 [2] was 6.77.
With `O=C(O)C(CC1CCN(C(=O)C=Cc2ccc(Cl)c(Cl)c2)CC1)N1CCC(c2c[nH]c3ccccc23)CC1` (stereo not drawn) [Compound 60, 3-{1-[3-(3,4-dichloro-phenyl)-acryloyl]-piperidin-4-yl}-2-[4-(1H-indol-3-yl)-piperidin-1-yl]-propionic acid] the pIC50 (CCR2) was 6.51, the pIC50 [1, 3] was 6.42 and the pIC50 [2] was 6.54.
`O=C(O)C(CC1CCN(C(=O)C=Cc2cc(F)cc(F)c2)CC1)N1CCC(c2c[nH]c3ccccc23)CC1` (stereo not drawn) [Compound 61, 3-{1-[3-(3,5-difluoro-phenyl)-acryloyl]-piperidin-4-yl}-2-[4-(1H-indol-3-yl)-piperidin-1-yl]-propionic acid] showed a pIC50 (CCR2) of 6.08, a pIC50 [1, 3] of 5.55 and a pIC50 [2] of 6.62.
In the case of `COc1ccc(C2CCN(CC(N)C3CCN(C(=O)/C=C/c4cc(F)c(F)c(F)c4)CC3)CC2)cc1` (stereo not drawn) [Compound 65], the pIC50 (CCR2) was 7.10, the pIC50 [1, 3] was 7.40 and the pIC50 [2] was 6.60.
Work on `COC(=O)NC(CN1CCC(c2ccc(OC)cc2)CC1)C1CCN(C(=O)C=Cc2cc(F)c(F)c(F)c2)CC1` (stereo not drawn) [Compound 67, (2-[4-(4-methoxy-phenyl)-piperidin-1-yl]-1-{1-[3-(3,4,5-trifluoro-phenyl)-acryloyl]-piperidin-4-yl}-ethyl)-carbamic acid methyl ester] yielded a pIC50 (CCR2) of 6.62, a pIC50 [1, 3] of 6.52 and a pIC50 [2] of 6.15.
Work on `O=C(/C=C/c1cc(F)c(F)c(F)c1)N1CCC(O)(C(O)CN2CCC(c3c[nH]c4ccccc34)CC2)CC1` (stereo not drawn) [Compound 70] yielded a pIC50 (CCR2) of 6.74, a pIC50 [1, 3] of 7.10 and a pIC50 [2] of 8.00.
In the case of `O=C(/C=C/c1cc(Cl)cc(Cl)c1)N1CCC(O)(C(O)CN2CCC(c3c[nH]c4ccccc34)CC2)CC1` (stereo not drawn) [Compound 73], the pIC50 (CCR2) was 6.89, the pIC50 [1, 3] was 9.00 and the pIC50 [2] was 7.52.
In the case of `O=C(/C=C/c1cc(F)cc(Cl)c1)N1CCC(O)(C(O)CN2CCC(c3c[nH]c4ccccc34)CC2)CC1` (stereo not drawn) [Compound 74], the pIC50 (CCR2) was 7.40, the pIC50 [1, 3] was 8.70 and the pIC50 [2] was 7.10.
In the case of `O=C(/C=C/c1ccc(Cl)c(Cl)c1)N1CCC(O)(C(O)CN2CCC(c3c[nH]c4ccccc34)CC2)CC1` (stereo not drawn) [Compound 75], the pIC50 (CCR2) was 6.46, the pIC50 [1, 3] was 8.30 and the pIC50 [2] was 7.52.
For `O=C(/C=C/c1ccc(F)c(F)c1)N1CCC(O)(C(O)CN2CCC(c3c[nH]c4ccccc34)CC2)CC1` (stereo not drawn) [Compound 78], the pIC50 (CCR2) was 6.43, the pIC50 [1, 3] was 7.40 and the pIC50 [2] was 6.68.
Work on `O=C(/C=C/c1ccc(F)c(Br)c1)N1CCC(O)(C(O)CN2CCC(c3c[nH]c4ccccc34)CC2)CC1` (stereo not drawn) [Compound 80] yielded a pIC50 (CCR2) of 6.70, a pIC50 [1, 3] of 8.22 and a pIC50 [2] of 7.05.
In the case of `O=C(/C=C/c1ccc(Cl)c(Cl)c1)N1CCC(C(O)CN2CCC(c3nc4ccccc4[nH]3)CC2)CC1` (stereo not drawn) [Compound 85], the pIC50 (CCR2) was 6.82, the pIC50 [1, 3] was 8.22 and the pIC50 [2] was 7.40.
Compound `O=C(/C=C/c1cc(F)c(F)c(F)c1)N1CCC(C(O)CN2CCC(c3nc4ccccc4[nH]3)CC2)CC1` (stereo not drawn) [Compound 86] has a pIC50 (CCR2) of 7.10, a pIC50 [1, 3] of 7.15 and a pIC50 [2] of 7.30.
`COc1ccc(C2CCN(CC(O)C3(O)CCN(C(=O)/C=C/c4cc(F)c(F)c(F)c4)CC3)CC2)cc1` (stereo not drawn) [Compound 88] showed a pIC50 (CCR2) of 6.77, a pIC50 [1, 3] of 6.01 and a pIC50 [2] of 7.52.
`COc1ccc(C2CCN(CC(O)C3(O)CCN(C(=O)/C=C/c4ccc(F)c(F)c4)CC3)CC2)cc1` (stereo not drawn) [Compound 93] showed a pIC50 (CCR2) of 6.51, a pIC50 [1, 3] of 5.04 and a pIC50 [2] of 6.92.
`COc1ccc(C2CCN(CC(O)C3(O)CCN(C(=O)/C=C/c4cc(F)cc(F)c4)CC3)CC2)cc1` (stereo not drawn) [Compound 94] was tested, and the pIC50 (CCR2) was 6.46, the pIC50 [1, 3] was 6.05 and the pIC50 [2] was 7.00.
In the case of `COc1ccc(C2CCN(CC(O)C3CCN(C(=S)Nc4cc(F)cc(F)c4)CC3)CC2)cc1` (stereo not drawn) [Compound 107, 4-{1-hydroxy-2-[4-(4-methoxy-phenyl)-piperidin-1-yl]-ethyl}-piperidine-1-carbothioic acid (3,5-difluoro-phenyl)-amide], the pIC50 (CCR2) was 6.54, the pIC50 [1, 3] was 5.37 and the pIC50 [2] was 7.40.
In the case of `COc1ccc(C2CCN(CC(O)C3CCN(C(=S)Nc4ccc(Br)c(F)c4)CC3)CC2)cc1` (stereo not drawn) [Compound 110, 4-{1-hydroxy-2-[4-(4-methoxy-phenyl)-piperidin-1-yl]-ethyl}-piperidine-1-carbothioic acid (4-bromo-3-fluoro-phenyl)-amide], the pIC50 (CCR2) was 7.05, the pIC50 ([1]; THP-1 cells) was 5.37 and the pIC50 [2] was 7.15.
`O=C(/C=C/c1cc(F)c(F)c(F)c1)N1CCC(O)(C(O)CN2CCC(c3ccc(F)cc3)CC2)CC1` (stereo not drawn) [Compound 128] was tested, and the pIC50 (CCR2) was 6.96, the pIC50 [1, 3] was 5.72 and the pIC50 [2] was 6.52.
`O=C(/C=C/c1cc(F)cc(F)c1)N1CCC(O)(C(O)CN2CCC(c3ccc(F)cc3)CC2)CC1` (stereo not drawn) [Compound 130] gave a pIC50 (CCR2) of 7.00, a pIC50 [1, 3] of 5.62 and a pIC50 [2] of 6.72.
`O=C(/C=C/c1cc(F)c(F)c(F)c1)N1CCC(O)(C(O)CN2CCC(c3ccc(C(F)(F)F)cc3)CC2)CC1` (stereo not drawn) [Compound 136] was tested, and the pIC50 (CCR2) was 6.85, the pIC50 [1, 3] was 6.68 and the pIC50 [2] was 6.82.
With `O=C(/C=C/c1ccc(F)c(F)c1)N1CCC(O)(C(O)CN2CCC(c3ccc(C(F)(F)F)cc3)CC2)CC1` (stereo not drawn) [Compound 137] the pIC50 (CCR2) was 6.59, the pIC50 [1, 3] was 5.89 and the pIC50 [2] was 6.77.
`O=C(/C=C/c1cc(F)cc(F)c1)N1CCC(O)(C(O)CN2CCC(c3ccc(C(F)(F)F)cc3)CC2)CC1` (stereo not drawn) [Compound 138] showed a pIC50 (CCR2) of 6.68, a pIC50 [1, 3] of 6.09 and a pIC50 [2] of 7.22.
Compound `O=C(Nc1cc(F)cc(F)c1)N1CCC(O)(C(O)CN2CCC(c3ccc(C(F)(F)F)cc3)CC2)CC1` (stereo not drawn) [Compound 142, 4-hydroxy-4-{1-hydroxy-2-[4-(4-trifluoromethyl-phenyl)-piperidin-1 yl]-ethyl}-piperidine-1-carboxylic acid (3,5-difluoro-phenyl)-amide] has a pIC50 (CCR2) of 6.59, an inhibition at 25 µM ([1]; Homo sapiens, THP-1, test concentration of 25 μM, given where an IC50 value was not obtained, read-out: Inhibition of MCP-1 Induced Calcium Ion Influx, percent inhibition) of 68% and a pIC50 [2] of 6.59.
`O=C(/C=C/c1cc(Cl)cc(Cl)c1)N1CCC(O)(C(O)CN2CCC(c3c[nH]c4ccc(N5CCOCC5)cc34)CC2)CC1` (stereo not drawn) [Compound 151] was tested, and the pIC50 (CCR2) was 7.40, the pIC50 [1, 3] was 6.29 and the pIC50 [2] was 6.80.
`O=C(/C=C/c1cc(F)c(F)c(F)c1)N1CCC(O)(C(O)CN2CCC(c3c[nH]c4ccc(F)cc34)CC2)CC1` (stereo not drawn) [Compound 155] showed a pIC50 (CCR2) of 7.00, a pIC50 [1, 3] of 6.18 and a pIC50 [2] of 6.74.
